Laboratory results as given in PMC4018403, “Transient Receptor Potential Ankyrin 1 Receptor Activation In Vitro and In Vivo by Pro-tussive Agents: GRC 17536 as a Promising Anti-Tussive Therapeutic” (PLoS ONE, 2014).

What was measured:
[1] = test system: citric acid induced cough response; assay: Citric acid induced conscious cough model; assay type: in vivo, guinea pig; conditions: 30 mg/kg i.p., 2 h before citric acid aerosol (0.4 M)
Protocol: Male Hartley guinea pigs (200–600 g, Harlan, UK) were acclimatized in cages (20–22°C, with a light/dark cycle of 12/12 hours) before beginning of the experiments and were maintained on an ad lib standard guinea pig pellet diet and water containing dietary amounts of ascorbic acid.
Cough was detected both by pressure change and by sound and recorded with a Buxco cough analyzer (Buxco, Wilmington, NC, USA) as described earlier. Guinea pigs were randomly assigned to various test groups and were treated with different doses of GRC 17536 or Dextromethorphan i.p. before tussive challenge. The Vehicle control group received only 0.5% methyl cellulose. Two hours after i.p. administration of vehicle or test compounds, animals were placed in individual whole body plethysmographs and were exposed to citric acid aerosol (0.4 M) and the incidences of cough were recorded for 10 minutes with the help of Buxco cough analyzer.
For in vitro experiments, data was analyzed using GraphPad Prism 3.0 (GraphPad Software Inc. San Diego, CA, USA). For in vivo experiment, data from the treatment groups were compared with the control group. Mean values were statistically analyzed by one-way analysis of variance (ANOVA) followed by the Dunnett's Multiple Comparisons Test to evaluate significant differences between groups.

TRPA1 [2] = target: T1, TRPA1 (Homo sapiens, UniProt O75762); assay: TLR ligand-enhanced 45Ca+2 uptake in A549 cells; assay type: cell-based; parameters: A549 cells have been reported to express endogenous TRPA1; host or cells: A549; conditions: A549 cells; TLR ligand pre-treatment 16-18 hours
Protocol: (§1) Human lung fibroblast cells, CCD19-Lu (ATCC CCL-210) were obtained from American Type Culture Collection (ATCC; Rockville, MD, USA) and cultured in MEM supplemented with 10% FBS. Human pulmonary alveolar epithelial cell line A549 (ATCC CCL-185) was also obtained from ATCC and maintained in DMEM F-12 supplemented with 10% FBS. Both the cell types were cultured at 37°C in humidified air containing 5% CO2. Chinese hamster ovary (CHO) cells stably expressing human TRPA1 (hTRPA1/CHO), TRPV1 (hTRPV1/CHO), TRPV3 (hTRPV3/CHO), TRPV4 (hTRPV4/CHO and TRPM8 (hTRPM8/CHO were generated in-house and maintained in DMEM F-12 supplemented with 10% FBS and G418.
(§2) Fluorimetric and radiometric Ca^+2 influx assay was performed as described earlier. GRC 17536, GRC 17770, compound 7 or GRC 6211 was added to the cells 15 minutes prior to addition of agonist. Citric acid stock solution (1 M) was prepared in dH2O. Subsequent dilutions were made in Ca^+2, Mg^+2 free PBS (pH 7.3). No significant change in pH was observed upto 10 mM citric acid. At 30 mM concentration of citric acid, the pH of the solution dropped to 5.5. TLR ligands - LPS (10 µg/ml, TLR4), loxoribine (10 µM, TLR7) and ssRNA40 (1 µg/ml, TLR8) were dissolved in media and added to the cells for 16–18 hours. TRP selectivity of GRC 17536 and compound 7 was performed for TRPV1, TRPV3, TRPV4 and TRPM8 using Capsaicin (1 µM), 2-APB (1 mM), 4α-PDD (30 µM) and Icilin (250 nM) respectively, as agonist.

TRPA1 [3] = target: T1, TRPA1; assay: TLR ligand-enhanced 45Ca+2 uptake in hTRPA1/CHO cells; assay type: cell-based; parameters: expressed in transfected cells
Protocol: as §1, §2

TRPA1 mRNA = assay: Real-time RT-PCR of TRPA1 mRNA in hTRPA1/CHO cells; assay type: cell-based, human; conditions: pre-incubation with TLR ligand
Protocol: Total RNA was extracted from hTRPA1/CHO cells using TRI reagent (Sigma, St. Louise, MO, USA). 3 µg of RNA was reverse transcribed using iScript select cDNA synthesis kit (Biorad Hercules, CA, USA) according to the manufacturer's instructions to produce single-stranded cDNA. RT-PCR was performed with an real-time thermal cycler Eppendorf Mastercycler Ep (Eppendorf AG, Hamburg, Germany) using iTaq SYBR Green Supermix with ROX kit (Biorad Hercules, CA, USA) with human TRPA1 specific primers: 5′-[…]-3′(sense primer) and 5′-CTTTTATGTCTACTTG GGCACCTT-3′(antisense primer). RT-PCR reaction was carried out for 40 cycles at 94°C for 30 s, 60°C for 15 s and 60°C for 60 s. Data was interpreted using 2^(-ΔΔCT) Livak method of analysis.

T1 sequence (O75762 whole entry): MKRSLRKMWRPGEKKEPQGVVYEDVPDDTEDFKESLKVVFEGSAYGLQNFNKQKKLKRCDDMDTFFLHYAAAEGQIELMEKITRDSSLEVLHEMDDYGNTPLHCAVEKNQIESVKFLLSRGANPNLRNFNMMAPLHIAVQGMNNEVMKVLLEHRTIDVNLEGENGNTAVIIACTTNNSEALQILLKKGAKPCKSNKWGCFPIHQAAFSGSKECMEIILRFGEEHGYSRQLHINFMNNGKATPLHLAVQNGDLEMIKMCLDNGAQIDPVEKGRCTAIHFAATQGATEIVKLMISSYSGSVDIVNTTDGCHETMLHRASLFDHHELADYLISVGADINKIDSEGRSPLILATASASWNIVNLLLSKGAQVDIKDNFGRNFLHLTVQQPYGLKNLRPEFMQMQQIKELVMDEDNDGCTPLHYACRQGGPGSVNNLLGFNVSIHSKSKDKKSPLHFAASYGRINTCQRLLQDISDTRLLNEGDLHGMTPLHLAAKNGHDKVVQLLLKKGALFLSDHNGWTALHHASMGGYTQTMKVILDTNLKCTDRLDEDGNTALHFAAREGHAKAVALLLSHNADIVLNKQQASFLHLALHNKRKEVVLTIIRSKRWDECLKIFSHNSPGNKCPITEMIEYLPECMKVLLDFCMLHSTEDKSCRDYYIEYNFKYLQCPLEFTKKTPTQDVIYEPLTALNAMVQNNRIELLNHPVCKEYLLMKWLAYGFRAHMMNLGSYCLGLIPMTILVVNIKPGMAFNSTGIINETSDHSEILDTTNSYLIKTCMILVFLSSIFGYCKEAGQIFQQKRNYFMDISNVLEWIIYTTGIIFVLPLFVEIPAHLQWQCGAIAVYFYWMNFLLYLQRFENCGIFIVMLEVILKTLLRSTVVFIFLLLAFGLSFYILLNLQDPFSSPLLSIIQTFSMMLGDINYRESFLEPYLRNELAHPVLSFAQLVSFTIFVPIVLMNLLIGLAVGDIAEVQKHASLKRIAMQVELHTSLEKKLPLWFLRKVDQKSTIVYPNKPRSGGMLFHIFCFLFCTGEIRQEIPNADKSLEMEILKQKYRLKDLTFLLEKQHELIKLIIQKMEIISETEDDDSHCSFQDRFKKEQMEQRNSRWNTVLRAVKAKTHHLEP

| SMILES | Inhibition of cough response [1] | Enhancement of AITC mediated 45Ca+2 uptake (TRPA1 [2]) | Increase in 45Ca+2 uptake over AITC alone (TRPA1 [3]; hTRPA1/CHO, pre-treatment Loxoribine 10 µM or ssRNA40 1 µg/ml, 16-18 hours) | Increase in 45Ca+2 uptake by TLR ligand alone (TRPA1 [3]; ligand alone, no TRPA1 agonist, 'these cells', data not shown) | TRPA1 mRNA levels compared to control (TRPA1 mRNA) |
| --- | --- | --- | --- | --- | --- |
| COc1ccc2c(c1)[C@]13CCCC[C@@H]1[C@H](C2)N(C)CC3 [Dextromethorphan, reference compound] | 66% | – | – | – | – |
| C=CCn1c(=O)n([C@@H]2O[C@H](CO)[C@@H](O)[C@H]2O)c2nc(N)[nH]c(=O)c21 [Loxoribine, reference compound] | – | 30% | 20% | did not show any increase | enhance TRPA1 expression |
